Data taken from ChEMBL document CHEMBL1828616, “Novel terpene based 1,4,2-dioxazoles: synthesis, characterization, molecular properties and screening against Entamoeba histolytica” (Eur J Med Chem, 2011).

Key:
[1] = Octanol-water partition coefficient, log P of the compound; format: physicochemical
Entamoeba histolytica = experiment: Antiamoebic activity against Entamoeba histolytica HM-1:IMSS by microdilution method; format: functional, organism-based
H9c2 [2] = experiment: (§1) Cytotoxicity against rat H9c2 cells assessed as cell viability at 200 uM after 48 hrs by MTT assay; format: cell-based; conditions: h9c2, 48 h, 200 µM
H9c2 [3] = experiment: Cytotoxicity against rat H9c2 cells assessed as cell viability after 48 hrs by MTT assay; format: cell-based; conditions: H9c2, 48 h
H9c2 [4] = experiment: Cytotoxicity against rat H9c2 cells assessed as cell viability at 100 uM after 48 hrs by MTT assay; format: cell-based; conditions: h9c2, 48 h
[5] = Cytotoxicity against rat H9c2 cells assessed as cell viability at 3.13 to 25 uM after 48 hrs by MTT assay; format: cell-based; conditions: read-out: Activity
H9c2 [6] = experiment: Cytotoxicity against rat H9c2 cells assessed as cell viability at 50 uM after 48 hrs by MTT assay; format: cell-based; conditions: h9c2, 48 h
[7] = Selectivity index, ratio of IC50 for rat H9c2 cells to IC50 for Entamoeba histolytica HM-1:IMSS
in vitro = conditions: rat, H9c2 cells
Description: Cytotoxicity against rat H9c2 cells assessed as cell viability at 3.13 uM after 48 hrs by MTT assay

[8] = as §1; format: cell-based; conditions: H9c2 cells, read-out: Activity

Compound | logP [1] | IC50 (Entamoeba histolytica) | Activity (H9c2 [2]) | IC50 (H9c2 [3]) | Activity (H9c2 [4]) | viability at 48 h [5] | Activity (H9c2 [6]) | Ratio IC50 [7] | viability at 48 h, 3.13 µM (in vitro) | viability at 48 h, 200 µM [8]
CC(C)=CCC/C(C)=C/C1=NOC(C)(c2ccccn2)O1 (configuration not stated) | 4.5 | 2250 nM | – | – | – | – | – | – | – | –
CC(C)=CCC/C(C)=C/C1ON=C(c2cccs2)O1 (configuration not stated) | 4.74 | 3050 nM | – | – | – | – | – | – | – | –
CC(C)=CCC/C(C)=C/C1=NOC(c2ccccn2)O1 (configuration not stated) | 3.96 | 2980 nM | – | – | – | – | – | – | – | –
CC(C)=CCC/C(C)=C/C1=NOC(c2cccs2)O1 (configuration not stated) | 5.13 | 2900 nM | – | – | – | – | – | – | – | –
CC1(c2cccs2)ON=C(c2ccc3c(c2)OCO3)O1 (configuration not stated) | 3.51 | 2680 nM | – | – | – | – | – | – | – | –
CC(C)=CCC/C(C)=C/C1=NOC(c2ccco2)O1 (configuration not stated) | 4.61 | 2420 nM | – | – | – | – | – | – | – | –
CC(C)=CCC/C(C)=C/C1=NOC(C)(c2ccco2)O1 (configuration not stated) | 5.15 | 2020 nM | – | – | – | – | – | – | – | –
c1csc(C2ON=C(c3ccc4c(c3)OCO4)O2)c1 (configuration not stated) | 2.97 | 3500 nM | – | – | – | – | – | – | – | –
CC(C)=CCC/C(C)=C/C1=NOC(C)(c2cccs2)O1 (configuration not stated) | 5.67 | 3010 nM | – | – | – | – | – | – | – | –
CC(C)=CCC/C(C)=C/C1=NOC(c2ccc3c(c2)OCO3)O1 (configuration not stated) | 5.31 | 1480 nM | – | – | – | – | – | – | – | –
CC(C)=CCC/C(C)=C/C1ON=C(c2ccccn2)O1 (configuration not stated) | 4.08 | 2220 nM | – | – | – | – | – | – | – | –
CC(C)=CCC/C(C)=C/C1ON=C(c2ccco2)O1 (configuration not stated) | 5.25 | 2780 nM | – | – | – | – | – | – | – | –
c1csc(C2=NOC(c3ccc4c(c3)OCO4)O2)c1 (configuration not stated) | 2.45 | 2450 nM | – | – | – | – | – | – | – | –
Cc1ncc([N+](=O)[O-])n1CCO [METRONIDAZOLE] | – | – | Toxic | > 200000 nM | Toxic | – | Toxic | >137.9 | 100% | –

Continued, in another order:

logP [1] | IC50 (Entamoeba histolytica) | Compound | Activity (H9c2 [2]) | IC50 (H9c2 [3]) | Activity (H9c2 [4]) | viability at 48 h [5] | Activity (H9c2 [6]) | Ratio IC50 [7] | viability at 48 h, 3.13 µM (in vitro) | viability at 48 h, 200 µM [8]
1.8 | 1030 nM | c1ccc(C2ON=C(c3ccc4c(c3)OCO4)O2)nc1 (configuration not stated) | Toxic | 40000 nM | Toxic | ≥ 82% | Toxic | 38.83 | – | –
5.44 | 1390 nM | CC(C)=CCC/C(C)=C/C1ON=C(c2ccc3c(c2)OCO3)O1 (configuration not stated) | – | – | – | – | – | – | – | –
1.8 | 1060 nM | c1ccc(C2=NOC(c3ccc4c(c3)OCO4)O2)nc1 (configuration not stated) | Toxic | 85000 nM | Toxic | ≥ 82% | Toxic | >80.18 | – | –
2.45 | 1090 nM | c1coc(C2ON=C(c3ccc4c(c3)OCO4)O2)c1 (configuration not stated) | Toxic | > 200000 nM | Toxic | ≥ 82% | Toxic | >183.48 | – | –
2.99 | 1100 nM | CC1(c2ccco2)ON=C(c2ccc3c(c2)OCO3)O1 (configuration not stated) | Toxic | > 200000 nM | Toxic | ≥ 82% | Toxic | >181.81 | – | –
2.97 | 1050 nM | c1coc(C2=NOC(c3ccc4c(c3)OCO4)O2)c1 (configuration not stated) | Toxic | 200000 nM | Toxic | ≥ 82% | Toxic | 190.47 | – | –
2.34 | 1000 nM | CC1(c2ccccn2)ON=C(c2ccc3c(c2)OCO3)O1 (configuration not stated) | – | > 200000 nM | Toxic | ≥ 82% | Toxic | >200 | – | 88%
